This assay relates to Toxoplasma gondii RH-2F tachyzoites. Description: microbe, parasite or virus in culture. Conditions: 72 h.
The mark [1] stands for this setting: read-out: Parasite inhibition (%) mean, preliminary screen of compound library, mean.
[2] abbreviates: read-out: Parasite inhibition (%) mean, preliminary screen, mean.

Results on 46 compounds are retold here after article PMC7216583 (Parasites & Vectors, 2020).

Structures can show the parent of a compound that is named as a salt. Where two headings read alike, the source gives them in different places.

As to `COC(=O)C1=C(C)NC(C)=C(C(=O)OCCN2CCN(C(c3ccccc3)c3ccccc3)CC2)C1c1cccc([N+](=O)[O-])c1` (stereo not shown) [Manidipine (Manyper)], under setting [1], the inhibition of growth at 5 µM is 1.1%.
As for `CN1CCN(c2c(F)cc3c(=O)c(C(=O)O)cn4c3c2OCN4C)CC1` [Marbofloxacin], under setting [1], the inhibition of growth at 5 µM came to 8.7%.
Still for that read-out and setting: under `CN1CCN2c3ncccc3Cc3ccccc3C2C1` (stereo not shown) [Mirtazapine (Remeron, Avanza)] stands 33.1%.
Turning to `O=C(O)[C@H](CC(=O)N1C[C@H]2CCCC[C@H]2C1)Cc1ccccc1` [Mitiglinide calcium], the inhibition of growth at 5 µM under setting [2] turned out to be 0.9%.
`CCOC(=O)[C@H](CCc1ccccc1)N[C@@H](C)C(=O)N1Cc2cc(OC)c(OC)cc2C[C@H]1C(=O)O` [Moexipril HCl]: the inhibition of growth at 5 µM under setting [2] came to 35.3%.
Same read-out and setting: the figure for `Cc1ccc(S(=O)(=O)OCC(=O)Nc2ccc(C(=O)O)c(O)c2)cc1` [NSC 74859 (S3I-201)] is -25.8%.
With `Fc1cc(-c2cccc3ncc(-c4cnn(C5CCNCC5)c4)nc23)cc(F)c1CN1CCOCC1` [NVP-BSK805 2HCl], the inhibition of growth at 5 µM under setting [1] is 14.6%.
As to `CNS(=O)(=O)CCc1ccc2[nH]cc(C3CCN(C)CC3)c2c1` [Naratriptan HCl], the inhibition of growth at 5 µM under setting [2] came to 0.6%.
In the case of `O[C@H](CNC[C@@H](O)[C@H]1CCc2cc(F)ccc2O1)[C@@H]1CCc2cc(F)ccc2O1` [Nebivolol (Bystolic)], the inhibition of growth at 5 µM under setting [2] came to 68.9%.
Consider `NC(=O)Cc1cccc(C(=O)c2ccccc2)c1N` [Nepafenac], for which the inhibition of growth at 5 µM under setting [1] was -10.3%.
With `CCOc1cc2ncc(C#N)c(Nc3ccc(OCc4ccccn4)c(Cl)c3)c2cc1NC(=O)/C=C/CN(C)C` [Neratinib (HKI-272)], under setting [2], the inhibition of growth at 5 µM was -11.6%.
The same measure, in the same setting: the figure for `Cc1cn(-c2cc(NC(=O)c3ccc(C)c(Nc4nccc(-c5cccnc5)n4)c3)cc(C(F)(F)F)c2)cn1` [Nilotinib (AMN-107)] is 0.1%.
Still for that read-out and setting: under `C[C@](O)(COc1ccc(C#N)cc1)C(=O)Nc1ccc(C#N)c(C(F)(F)F)c1` [Ostarine (MK-2866)] stands 0.7%.
In the case of `CCCCCCCCOc1ccccc1C(=O)Nc1ccc(C(=O)OCC[N+](C)(CC)CC)cc1` [Otilonium Bromide], under setting [1], the inhibition of growth at 5 µM came out at 0.7%.
`CCN(CC)CC#CCOC(=O)C(O)(c1ccccc1)C1CCCCC1` (stereo not shown) [Oxybutynin (Ditropan)]: under setting [2], the inhibition of growth at 5 µM is -3.2%.
As to `CN(C)[C@@H]1C(O)=C(C(N)=O)C(=O)[C@@]2(O)C(=O)C3=C(O)c4c(O)cccc4[C@@](C)(O)[C@H]3[C@H](O)[C@@H]12` [Oxytetracycline (Terramycin)], the inhibition of growth at 5 µM under setting [1] was found to be 33.5%.
Still for that read-out and setting: the figure for `C=CC(=O)N1CCC[C@@H](n2nc(-c3ccc(Oc4ccccc4)cc3)c3c(N)ncnc32)C1` [PCI-32765 (Ibrutinib)] is -0.8%; for `C=CC(=O)Nc1ccc2ncnc(Nc3cccc(Br)c3)c2c1` [PD168393] it is -0.1%.
For `O=C(NOCC(O)CO)c1cc(Br)c(F)c(F)c1Nc1ccc(I)cc1F` (stereo not shown) [PD318088], the inhibition of growth at 5 µM under setting [2] is -12.9%.
For `O=C(NOC[C@H](O)CO)c1ccc(F)c(F)c1Nc1ccc(I)cc1F` [PD0325901], under setting [2], the inhibition of growth at 5 µM is -6.9%.
Still for that read-out and setting: under `CCCN1CCO[C@@H]2c3cc(O)ccc3OC[C@@H]21` [PD 128907 HCl] stands 1.8%.
`O=C(Nc1cccnc1)N1CCC(Cc2cccc(Oc3ccc(C(F)(F)F)cn3)c2)CC1` [PF-3845]: under setting [1], the inhibition of growth at 5 µM came to 6.7%.
The same measure, in the same setting: the figure for `CN(C)C1CCN(C(=O)c2ccc(NC(=O)Nc3ccc(-c4nc(N5CCOCC5)nc(N5CCOCC5)n4)cc3)cc2)CC1` [PF-05212384 (PKI-587)] is 40.5%.
Consider `COc1ccccc1S(=O)(=O)Nc1ccc2c(c1)CN(C)C(=O)N2` [PFI-1], for which, under setting [2], the inhibition of growth at 5 µM was determined as 2.2%.
Turning to `Nc1ncnc2c1c(-c1cnc3[nH]ccc3c1)nn2C1CCCC1` [PP-121], the inhibition of growth at 5 µM under setting [1] amounted to 36.8%.
With `C[C@@]12C[C@@]3(O)O[C@@H](O1)[C@]1(COC(=O)c4ccccc4)[C@H]3C[C@@]12O[C@@H]1O[C@H](CO)[C@@H](O)[C@H](O)[C@H]1O` [Paeoniflorin], the inhibition of growth at 5 µM under setting [1] was 0.7%.
Regarding `CCOc1cc2ncc(C#N)c(Nc3ccc(F)c(Cl)c3)c2cc1NC(=O)/C=C/CN(C)C` [Pelitinib (EKB-569)], the inhibition of growth at 5 µM under setting [2] is -28.8%.
Regarding `N=C(N)c1ccc(OCCCCCOc2ccc(C(=N)N)cc2)cc1` [Pentamidine HCl], the inhibition of growth at 5 µM under setting [1] worked out at 23.6%.
In the case of `O=C1c2ccccc2C(=O)C1c1ccccc1` [Phenindione (Rectadione)], under setting [1], the inhibition of growth at 5 µM was -1.7%.
Same read-out and setting: under `CC[C@@H]1/C=C(\C)C[C@H](C)C[C@H](OC)[C@H]2O[C@@](O)(C(=O)C(=O)N3CCCC[C@H]3C(=O)O[C@H](/C(C)=C/[C@@H]3CC[C@H](Cl)[C@H](OC)C3)[C@H](C)[C@@H](O)CC1=O)[C@H](C)C[C@@H]2OC` [Pimecrolimus] stands -12.9%.
As for `Cc1ccc(C(=O)Nc2ccc(CN3CCN(C)CC3)c(C(F)(F)F)c2)cc1C#Cc1cnc2cccnn12` [Ponatinib (AP24534)], the inhibition of growth at 5 µM under setting [2] came to 49.3%.
Consider `CC(C)N(CCNC(=O)CN1CCCC1=O)C(C)C` [Pramiracetam], for which, under setting [1], the inhibition of growth at 5 µM stood at 24.1%.
For `C[C@]12C=CC(=O)C=C1CC[C@@H]1[C@H]2C(=O)C[C@@]2(C)[C@H]1CC[C@@]2(O)C(=O)CO` [Prednisone (Adasone)], under setting [1], the inhibition of growth at 5 µM was determined as 33.8%.
On the same count and under the same terms, the figure for `CCCNC(C)C(=O)Nc1ccccc1C` (stereo not shown) [Prilocaine] is -21.8%.
In the case of `CN(C)C(=O)Oc1ccc[n+](C)c1` [Pyridostigmine Bromide (Mestinon)], the inhibition of growth at 5 µM under setting [2] is -6.5%.
With `C#CCN[C@@H]1CCc2ccccc21` [Rasagiline mesylate], the inhibition of growth at 5 µM (read-out: Parasite inhibition (%) mean) is 13.3%.
In the case of `COc1cc(OC)c(/C=C/S(=O)(=O)Cc2ccc(OC)c(NCC(=O)O)c2)c(OC)c1` [Rigosertib (ON-01910)], the inhibition of growth at 5 µM under setting [2] is 0.1%.
As to `Cc1c(C(=O)NN2CCCCC2)nn(-c2ccc(Cl)cc2Cl)c1-c1ccc(Cl)cc1` [Rimonabant (SR141716)], under setting [1], the inhibition of growth at 5 µM stood at 5.1%.
Take `CCN(C)C(=O)Oc1cccc([C@H](C)N(C)C)c1` [Rivastigmine tartrate (Exelon)]: the inhibition of growth at 5 µM under setting [2] is 22.8%.
For the compound `O=C(CCCCCCNC(=O)c1cnc(N(c2ccccc2)c2ccccc2)nc1)NO` [Rocilinostat (ACY-1215)], the inhibition of growth at 5 µM under setting [1] worked out at 2.9%.
Regarding `CC[C@H](CO)Nc1nc(NCc2ccccc2)c2ncn(C(C)C)c2n1` [Roscovitine (Seliciclib, CYC202)], the inhibition of growth at 5 µM under setting [2] is 12.2%.
Take `CC(C)c1nc(N(C)S(C)(=O)=O)nc(-c2ccc(F)cc2)c1/C=C/[C@@H](O)C[C@@H](O)CC(=O)O` [Rosuvastatin calcium (Crestor)]: the inhibition of growth at 5 µM under setting [1] is -0.1%.
For the compound `CNCc1ccc(-c2[nH]c3cc(F)cc4c3c2CCNC4=O)cc1` [Rucaparib (AG-014699 , PF-01367338)], the inhibition of growth at 5 µM under setting [2] came to 26.1%.
On the same count and under the same terms, the figure for `NC(=O)c1cn(Cc2c(F)cccc2F)nn1` [Rufinamide (Banzel)] is 1.7%.
For the compound `C[C@H]1CCO[C@H]2Cn3cc(C(=O)NCc4ccc(F)cc4F)c(=O)c(O)c3C(=O)N21` [S/GSK1349572 (GSK1349572)], the inhibition of growth at 5 µM under setting [1] came to 0.2%.
For the compound `COc1ccc(NS(=O)(=O)c2sc3ccc(Cl)cc3c2C)cc1N1CCNCC1` [SB 271046], under setting [1], the inhibition of growth at 5 µM was -0.6%.
